Assay results published in US6911432B2, “Drugs, foods or drinks with the use of algae-derived physiologically active substances” (priority 1997, dated 2005).

What was measured:
HL-60 cells [1] = test: antiproliferation assay, MTT method, absorbance at 590 nm; type: cell-based, human; settings: for antiproliferation activity against HL-60 cells (in words): preparations and fractions, compared with control to which water was added
HL-60 cells [2] = test: apoptosis-inducing assay, cell morphology under an optical microscope; type: cell-based, human
Method: Human promyelocytic leukemia cell HL-60 (ATCC CCL-240) was incubated at 37° C. in RPMI 1640 medium (manufactured by Gibco) supplemented with 10% of fetal bovine serum (JRH Bioscience) which had been treated at 56° C. for 30 minutes, and suspended in the same medium at a concentration of 500 cells/90 μl. Each 90 μl portion of the suspension was distributed into each well of a 96 well plate (manufactured by Falcon). To the suspension in each well was added 10 μl of the above-mentioned acid decomposition solution, a 10-fold dilution of the solution or water, and incubated with 5% CO2 at 37° C. After 24 hour and 48 hour from the initiation of the incubation, the cell morphology was observed under an optical microscope. Then, according to the MTT method described in “Apoptosis Jikken Protocol” (Syuzyun-sha, Tanuma, Seiichi ed., pp. 156 (1994)), 5 mg/ml of 3-(4,5-dimethylthiazole-2-yl)-2,5-diphenyltetrazolium bromide (manufactured by Sigma) and 10 μl of phosphate buffered saline solution were added to the culture and the incubation was continued for additional 4 hours. Then, 100 μl of 2-propanol containing 0.04 N hydrochloric acid was added to the culture, and the mixture was thoroughly stirred. An absorbance at 590 nm was measured and the number of viable cells was calculated from the absorbance measured for each of the wells, which was compared each other.
Each elution peak was fractionated, collected, evaporated to dryness under reduced pressure and then dissolved in 300 μl of water. Each fraction was sterilized by filtration and its 10 μl portion was placed in a well of a 96 well microtiter plate. Then, 90 μl of RPMI 1640 medium (manufactured by Nissui) containing 10% fetal bovine serum (manufactured by Gibco) and 5,000 HL-60 cells (ATCC CCL-240) was added thereto, followed by incubation at 37° C. for 48 hours with 5% CO2. The cell morphology was observed under an optical microscope. Then, 5 mg/ml 3-(4,5-dimethylthiazole-2-yl)-2,5-diphenyltetrazolium bromide and 10 μl of phosphate buffered saline solution were added thereto and the incubation was continued for additional 4 hours. To the culture was added 100 μl of 2-propanol containing 0.04 N hydrochloric acid and the resultant mixture was thoroughly stirred. The absorbance at 590 nm was measured to determine a cell proliferation rate.

RAW 264.7 cells = test: NO production induced by LPS, NO2- concentration in medium; type: cell-based, mouse; settings: for inhibition of NO production (in words): RAW264.7, aqueous 100 mM solution used as sample
Method: (1) RAW 264.7 cells (ATCC TIB 71) were suspended in phenol red-free Dulbecco's modified Eagle's medium containing 10% fetal bovine serum (manufactured by Gibco) and 2 mM L-glutamine (manufactured by Life Technologies Oriental, 25030-149) at a concentration of 3×10^5 cells/ml, and 500 μl portions thereof were seeded to respective wells of a 48-well microtiter plate and incubated at 37° C. for 12 hours in the presence of 5% CO2. To each well were added 10 μl of 25 μg/ml lipopolysaccharide (LPS, manufactured by Sigma, L-2012) and 10 μl of aqueous 5000, 1500, 500, 150 or 50 μM agarobiose or neoagarobiose (manufactured by Sigma, G4410) solution, and the plate was incubated for additional 12 hours. Then, concentration of NO2^− produced by oxidation of NO in the medium was measured. As control groups, a group to which LPS was not added and a group to which agarobiose or neoagarobiose was not added were provided.
After incubating as described above, 100 μl of 4% Greece reagent (manufactured by Sigma, G4410) was added to 100 μl of the medium, and the mixture was allowed to stand for 15 minutes at room temperature. Then, the absorbance at 490 nm was measured. NO2^− concentration in the medium was calculated with reference to a calibration curve prepared by using NaNO2 at given concentrations dissolved in the same medium as that described above. All the measurements were carried out in triplicate.
(2) A suspension of 5 g of commercially available agar (Ina agar type S-7, manufactured by Ina Shokuhin Kogyo) in 45 ml of 0.1 N HCl was treated at 95° C. for 13 minutes. After cooling to room temperature, the suspension was neutralized with NaOH and filtered through 0.22 μm MILLEX-GP filter (manufactured by Milipore, SLGPR25LS). […] Namely, 10 μl of 25 μg/ml LPS and 10 μl of a 20-fold dilution of the sample mentioned above were added to wells of a 48 well microtiter plate containing RAW264.7 cells which had been incubated in the wells. The measurement was carried out with the culture medium. As control groups, a group to which LPS was not added, a group to which a sample was not added and a group to which 2.5 mM citric acid was added were provided. All the measurement were carried out in duplicate.

HL-60 cells [3] = test: viable cell count with Trypan Blue under a microscope; type: cell-based, human; settings: final concentration 250 μM or 125 μM
Method: Agarobiose, agarotetraose, agarohexaose and agarooctaose (hereinafter, sometimes, these oligosuccharaides are referred to as agarooligosaccharides) obtained in Example 5 were dissolved in water at a concentration of 2.5 mM or 1.25 mM separately, and were sterilized by filtration. HL-60 cells were suspended in RPMI 1640 medium containing 10% fetal bovine serum at a concentration of 2.5×10^5 cells/4.5 ml and to this suspension was added 0.5 ml of each of the oligosaccharide solutions. The resultant mixture were incubated with 5% CO2 at 37° C. for 24 hours or 48 hours. A part of the cell culture was taken up, followed by addition of Trypan Blue thereto and observing under a microscope to count the number of viable cells.
That is, FIG. 14 illustrates the relation between the incubation time and the number of viable cells when HL-60 cells were cultured with addition of one of the oligosaccharides at the final concentration of 250 μM. FIG. 15 illustrates the relation between the incubation time and the number of viable cells when HL-60 cells were cultured with addition of one of the oligosaccharides at the final concentration of 125 μM. In FIGS. 14 and 15, the horizontal axes represent the incubation time (hrs.) and the vertical axes represent the number of viable cells (× 10^5/5 ml). The closed circle (●) represents the addition of water (control), the open diamond (⋄) represents the addition of agarobiose, the open circle (◯) represents the addition of agarotetraose, the open triangle (Δ) represents the addition of agarohexaose and the open square (□) represents the addition of agarooctaose.

[4] = system: lipid peroxide radical production; test: inhibition of lipid peroxide radical production (tert-butyl hydroperoxide, bacterial growth readout); type: cell-based, Staphylococcus aureus 3A; design: key to growth of the bacterium (activity of inhibiting lipid peroxide radical production): + represents the sample in which the growth of the bacterium was observed; −represents the sample in which the growth of the bacterium was not observed
Method: Staphylococcus aureus 3A (National Collection Of Type Culture, NCTC 8319) was inoculated into 5 ml of brain heart infusion medium (manufactured by Difco, 0037-17-8) and cultured at 37° C. overnight. The bacterial cells were collected by centrifugation, washed with phosphate buffered saline 3 times and then suspended in phosphate buffered saline at a concentration of 1×10^7 colony forming units/ml. A mixture of 100 μl of the cell suspension, 100 μl of an aqueous sample solution, 100 μl of aqueous 1 mg/ml methemoglobin (manufactured by Sigma M9250) solution, 600 μl of phosphated buffered saline and 100 μl of aqueous 50 mM tert-butyl hydroperoxide (manufactured by Katayama Kagaku, 03-4990) solution were reacted at 37° C. for 30 minutes. To the reaction mixture was added 1 ml of 2×NMP medium [prepared by dissolving 8 g of nutrient broth (manufactured by Difco, 0003-01-6), 5 g of trypton (manufactured by Difco, 0123-17-3), 5 g of NaCl, 10 g of mannitol (manufactured by Nacalai Tesque, 213-03) and 0.035 g of phenol red (manufactured by Nacalai Tesque, 268-07) in distilled water to make the volume up to 500 ml. The pH was adjusted to 7.5 with NaOH and then the mixture was sterilized by filtration] to stop the reaction. The resultant mixture was diluted every 3-folds with NMP medium (prepared by diluting 2×NMP medium 2-folds with sterilized water) to prepare 12 serial dilutions and 160 μl of each dilution was placed in each well of a 96-well microtiter plate. The plate was incubated at 37° C. overnight.
In Table 14, + represents the sample in which the growth of the bacterium was observed, and −represents the sample in which the growth of the bacterium was not observed. The concentration shown in the uppermost line of the table is that of the sample in the reaction mixture in which the sample was reacted with tert-butyl hydroperoxide and the bacterial cells at 37° C. for 30 minutes.

O=C[C@H](O)[C@H]1OC[C@@H](O)[C@@H]1O[C@@H]1O[C@H](CO)[C@H](OS(=O)(=O)O)[C@H](O)[C@H]1O [κ-carabiose, β-D-galactopyranosyl-4-sulfate-(1→4)-3,6-anhydro-D-galactose]
cell proliferation suppressed as compared with the control group (HL-60 cells [1]; HL-60, κ-carabiose at 156 μM): about 70% | antiproliferation activity against HL-60 cells (in words) (HL-60 cells [1]): cell proliferation was inhibited | apoptosis corpuscles under an optical microscope (HL-60 cells [2]; 156 μM): apoptosis corpuscles were observed | apoptosis-inducing activity (apoptosis corpuscles, in words) (HL-60 cells [2]; preparations and fractions): apoptosis corpuscles were observed

O=C[C@@H](O)[C@@H]1OC[C@H](O)[C@H]1O [3,6-anhydro-L-galactose]
absorbance at 590 nm relative to that of the control group to which water was added (HL-60 cells [1]; HL-60, final concentration of 1 mM): less than one-half | apoptosis corpuscles (HL-60 cells [2]; final concentration of 1 mM): apoptosis corpuscles were observed

O=C[C@H](O)[C@H]1OC[C@@H](O)[C@@H]1O [3,6-anhydro-D-galactose]
inhibition of NO production (in words) (RAW 264.7 cells): inhibited NO production

agarooctaose
apoptosis corpuscles (HL-60 cells [3]): apoptosis corpuscles were observed | number of viable cells as compared with the group to which water was added (HL-60 cells [3]; 24 hours or 48 hours): decreased

CO[C@H](C=O)[C@@H]1OC[C@H](O)[C@H]1O[C@@H]1O[C@H](CO)[C@H](O)[C@H](O)[C@H]1O [β-D-galactopyranosyl-(1→4)-3,6-anhydro-2-O-methyl-L-galactose]
antiproliferation activity against HL-60 cells (in words) (HL-60 cells [1]): strong antiproliferation activity | antiproliferation activity against HL-60 cells (in words) (HL-60 cells [1]; listed as group 3): an antiproliferation activity was observed

OC[C@H]1OC(O)[C@H](O)[C@@H](O[C@@H]2O[C@H]3CO[C@@H]([C@@H]2O)[C@@H]3O)[C@H]1O (stereo partly drawn) [neoagarobiose, reference compound]
inhibition of NO production induced by LPS (in words) (RAW 264.7 cells; RAW 264.7, 10 μl of 5000 to 50 μM solution per 500 μl well, 12 hours): did not

O=C[C@H](O)[C@@H](O)[C@@H](O)[C@H](O)CO [Galactose, galactose, reference compound]
inhibition of NO production (in words) (RAW 264.7 cells): did not | growth of the bacterium (activity of inhibiting lipid peroxide radical production) ([4]; 0.1 mM sample in the reaction mixture): − | growth of the bacterium (activity of inhibiting lipid peroxide radical production) ([4]; 1 mM sample in the reaction mixture): −
